# Read-outs that look alike come from different tables or passages of the source.
# How the values were obtained:
# [1] = cited from earlier work; for t1/2: arithmetic mean
# [2] = cited from earlier work
# [3] = colon cancer, adjuvant, XELODA 1250 mg/m^2/bid (n = 995), i.v. 5-FU/LV Mayo Clinic regimen (n = 974), cited from earlier work
# [4] = system: patient-derived colon cancer xenograft CXF 280; settings: for Minimum T/C: days 1-14, 22-35, Day 35
# Method: This study was to assess the antitumor efficacy of eniluracil in combination with different doses of capecitabine in the patient-derived colon xenograft CXF 280 subcutaneously implanted in immunodeficient athymic nude mice.
# The study consisted of an in vivo efficacy experiment with the patient-derived colon cancer xenograft CXF 280 implanted subcutaneously in athymic nude mice.
# This experiment consisted of six groups with six animals each. Animals were dosed in monotherapy with capecitabine at 300 or at 30 mg/kg/day daily for 2 weeks with a one-week dosing break followed by another 2 weeks of daily dosing (14 days ON and 7 days OFF). In combination therapies, capecitabine was dosed at 30, 15 or 7.5 mg/kg/day on days 1-7, 15-21 and 29-35 (7 days ON and 7 days OFF) as well as with eniluracil at 10 mg/kg/day on days 1, 3, 5, 15, 17, 19, 29, 31, and 33.
# Combination therapies with capecitabine and eniluracil scheduled for the same dosing day were administered with a six-hour dosing delay after dosing with eniluracil in order to ensure that all the eniluracil is eliminated in the mouse prior to capecitabine administration.
# All therapies were administered via oral gavage (p.o.) over the course of 35 days followed by an observation period of one week until day 42 of the experiment.
# Relative tumor volumes (RTVs) for Day x were calculated by dividing the absolute individual tumor volume on Day x (Tx) by the absolute individual tumor volume of the same tumor on the day of randomization (Tr) multiplied by 100%.
# Tumor growth inhibition was determined by comparison of the median RTV of the test groups (T) with the vehicle control group (C) and was expressed as minimum T/C value in percent. The minimum T/C value recorded for a test group during an experiment represents the maximum antitumor efficacy for the respective treatment.
# clinical = settings: human, in vivo
# Method: (§1) To evaluate the safety, dose-limiting toxicities (DLTs), and maximum tolerated dose (MTD) of capecitabine administered to patients with advanced, refractory gastrointestinal tract (GI) tumors using a 7 days on +7 days off capecitabine regimen ˜24 hours after a single, fixed, oral 40 mg dose of eniluracil.
# (§2) Eniluracil (40-50 mg) is orally administrated at Day 1. After 12-24 hours, capecitabine is orally administered. Capecitabine is given twice a day at 140-600 mg/day for a total of 7 days. Then the patient is rested for 7 days before receiving the next cycle which follows the above-described procedures. The cycles are repeated until either the patient has a complete response or when the disease progresses in the patient. A complete response means that the tumor is no longer present. Progression of the cancer means that the tumor starts enlarging or the tumor is no longer stable.
# (§3) Primary Endpoints: • DLTs and incidences of AEs according to NCI CTCAE Version 5.0. • Concentrations of capecitabine, 5 FU, FBAL, 5′ DFCR, and 5′ DFUR in plasma, PK parameters will be estimated from concentration time data using noncompartmental methods, as data permit. • Concentrations of eniluracil in plasma; PK parameters will be estimated from concentration-time data using noncompartmental methods, as data permit. • 2.
# (§4) Briefly, capecitabine was administered to patients with advanced, refractory gastrointestinal tract (GI) tumors using a 7 days on +7 days off capecitabine regimen ˜24 hours after a single, fixed, oral 40 mg dose of eniluracil.
# [5] = Clinical trial: plasma pharmacokinetics, capecitabine 7 days on + 7 days off ~24 hours after single oral 40 mg eniluracil; settings: day 8
# Method: as §1, §2, §3, §4
# [6] = human, in vivo
# Method: as §1, §2, §3, §4
# [7] = doses up to 50 g per day administered for seven days; cited from earlier work
# [8] = plasma, Day 14, after oral capecitabine 1255 mg/m^2, 8 cancer patients
# [9] = plasma, Day 14, after oral capecitabine 1255 mg/m^2, 8 cancer patients, geometric mean
# [10] = plasma, Day 14, after oral capecitabine 1255 mg/m^2, 8 cancer patients, median
# [11] = 2005 EMA for Xeloda, capecitabine alone 1250 mg/m^2
smiles,measurement,setting,value
"C[C@H]1O[C@@H](n2cc(F)c(N)nc2=O)[C@H](O)[C@@H]1O [5′-DFCR, 5′-deoxy-5-fluorocytidine]",t1/2,[1]; [8],1.31 h
same,AUC0-t,[1]; [9],3970 ng·h/mL
same,AUC0-∞,[1]; [9],5210 ng·h/mL
same,Cmax,[1]; [9],1710 ng/mL
same,tmax,[1]; [10],2.00 h
same,AUC0-∞,[2]; [11],7240 ng·h/mL
same,peak plasma concentrations (Cmax),[2]; [11],3050 ng/mL
same,time to peak plasma concentrations (tmax),[2]; [11],2.00 h
"CCCCCOC(=O)Nc1nc(=O)n([C@@H]2O[C@H](C)[C@@H](O)[C@H]2O)cc1F [Capecitabine, capecitabine]","Abdominal pain upper, Grade 3/4",[3],<1%
same,"Abdominal pain upper, Total",[3],6%
same,"Abdominal pain, Grade 3/4",[3],2%
same,"Abdominal pain, Total",[3],10%
same,"Alopecia, Total",[3],6%
same,"Anorexia, Grade 3/4",[3],<1%
same,"Anorexia, Total",[3],9%
same,"Asthenia, Grade 3/4",[3],<1%
same,"Asthenia, Total",[3],9%
same,"Conjunctivitis, Grade 3/4",[3],<1%
same,"Conjunctivitis, Total",[3],5%
same,"Constipation, Total",[3],6%
same,"Diarrhea, Grade 3/4",[3],11%
same,"Dizziness, Grade 3/4",[3],<1%
same,"Dizziness, Total",[3],5%
same,"Dysgeusia, Total",[3],6%
same,"Dyspepsia, Grade 3/4",[3],<1%
same,"Dyspepsia, Total",[3],5%
same,"Erythema, Grade 3/4",[3],1%
same,"Erythema, Total",[3],6%
same,"Fatigue, Grade 3/4",[3],<1%
same,"Fatigue, Total",[3],15%
same,"Hand-foot Syndrome, Grade 3/4",[3],17%
same,"Lethargy, Grade 3/4",[3],<1%
same,"Lethargy, Total",[3],10%
same,"Nausea, Grade 3/4",[3],2%
same,"Nausea, Total",[3],33%
same,"Neutropenia, Grade 3/4",[3],<1%
same,"Neutropenia, Total",[3],2%
same,"Pyrexia, Grade 3/4",[3],<1%
same,"Pyrexia, Total",[3],4%
same,"Rash, Total",[3],6%
same,"Stomatitis, Grade 3/4",[3],2%
same,"Stomatitis, Total",[3],22%
same,"Vomiting, Grade 3/4",[3],2%
same,"Vomiting, Total",[3],14%
same,"Diarrhea, Total",[3]; listed as XELODA,46%
same,"Hand-foot Syndrome, Total",[3]; listed as XELODA,60%
same,"Diarrhea, Total",[3]; listed as Xeloda,about 46%
same,"Hand-foot Syndrome, Total",[3]; listed as Xeloda,about 60%
same,t1/2,[1]; [8],0.85 h
same,AUC0-t,[1]; [9],7290 ng·h/mL
same,AUC0-∞,[1]; [9],7400 ng·h/mL
same,Cmax,[1]; [9],3990 ng/mL
same,tmax,[1]; [10],1.50 h
same,AUC0-∞,[2]; [11],7750 ng·h/mL
same,peak plasma concentrations (Cmax),[2]; [11],4670 ng/mL
same,time to peak plasma concentrations (tmax),[2]; [11],1.50 h
same,Minimum T/C,[4]; Group 2: capecitabine 300 mg/kg/day p.o.,4.5%
same,Minimum T/C,[4]; Group 3: capecitabine 30 mg/kg/day p.o.,34.9%
same,antitumor activity (in words),[4]; monotherapy with capecitabine at 300 mg/kg/day in mice,high antitumor activity
O=C1NCC(F)C(=O)N1 (centres unmarked) [FUH2],t1/2,[1]; [8],1.14 h
same,AUC0-t,[1]; [9],1200 ng·h/mL
same,AUC0-∞,[1]; [9],2150 ng·h/mL
same,Cmax,[1]; [9],442 ng/mL
same,tmax,[1]; [10],2.28 h
"O=c1[nH]cc(F)c(=O)[nH]1 [5-FU, 5-Fluorouracil]",half-life,"clinical; 5-FU Day 2 Mean T1/2, capecitabine daily dose 75 (with Eniluracil)",3.6 h
same,half-life,"clinical; 5-FU Day 2 Mean T1/2, capecitabine daily dose 150 (with Eniluracil)",3.35 h
same,half-life,"clinical; 5-FU Day 2 Mean T1/2, capecitabine daily dose 300 (with Eniluracil)",3.54 h
same,half-life,"clinical; 5-FU Day 2 Mean T1/2, capecitabine daily dose 450 (with Eniluracil)",5.71 h
same,half-life,"clinical; half-life (T1/2) of 5-FU at day 2, capecitabine in combination with eniluracil pretreatment, highest over doses",≤ 5.71 h
same,5-FU Mean T1/2,[1]; Capecitabine alone,0.76 h
same,exposure (AUC),[1]; after capecitabine oral dosing at 1255 mg/m^2,approximately 1630 h*ng/mL
same,t1/2,[1]; [8],0.76 h
same,AUC0-t,[1]; [9],1620 ng·h/mL
same,AUC0-∞,[1]; [9],1630 ng·h/mL
same,Cmax,[1]; [9],709 ng/mL
same,tmax,[1]; [10],2.00 h
same,AUC0-∞,[2]; [11],2030 ng·h/mL
same,peak plasma concentrations (Cmax),[2]; [11],950 ng/mL
"C[C@H]1O[C@@H](n2cc(F)c(=O)[nH]c2=O)[C@H](O)[C@@H]1O [5′DFUR, doxifluridine]",t1/2,[1]; [8],0.66 h
same,AUC0-t,[1]; [9],19900 ng·h/mL
same,AUC0-∞,[1]; [9],21700 ng·h/mL
same,Cmax,[1]; [9],9370 ng/mL
same,AUC0-∞,[2]; [11],24600 ng·h/mL
same,peak plasma concentrations (Cmax),[2]; [11],12100 ng/mL
same,time to peak plasma concentrations (tmax),[2]; [11],2.00 h
"NCC(F)C(=O)O (stereo not drawn) [FBAL, α-fluoro-β-alanine]",AUC0-t,"[1]; human, in vivo, po, 1255 mg/m2",30000 ng·h/mL
same,AUC0-∞,"[1]; human, in vivo, po, 1255 mg/m2",35200 ng·h/mL
same,Cmax,"[1]; human, in vivo, po, 1255 mg/m2",5320 ng/mL
same,exposure (AUC),"[1]; human, in vivo, po, 1255 mg/m2","30-35,000 h*ng/mL"
same,tmax,"[1]; human, in vivo, po, 1255 mg/m2",3.34 h
same,Tmax of FBAL,"[1]; human, in vivo",3.24 h
same,t1/2,[1]; [8],3.23 h
same,AUC0-∞,"[2]; in vivo, 1250 mg/m2",36300 ng·h/mL
same,peak plasma concentrations (Cmax),"[2]; in vivo, 1250 mg/m2",5460 ng/mL
same,time to peak plasma concentrations (tmax),"[2]; in vivo, 1250 mg/m2",3.34 h
same,effects of eniluracil on FBAL metabolism,[5],no longer apparent
"C#Cc1c[nH]c(=O)[nH]c1=O [Eniluracil, 5-Ethynyluracil]",metabolism of capecitabine into FBAL (AUC and Cmax of FBAL),[6],completely blocked
same,safety,[7],safe
